According to patent publication US20030064082A1, “Antipsychotic agents stimulate neurogenesis in brain” (priority 2001, published 2003):
“Also recorded” adds a separate entry of the source.

What was measured:
[1] = system: fibroblast growth factor-2; details: in vivo; cited from earlier work
[2] = system: subventricular zone (SVZ); test: BrdU uptake (newly divided cells) in the subventricular zone of rats after 21 days of drug in drinking water; assay type: in vivo, rat; details: for BrdU positive (BrdU+) cells / mean cell counts in the subventricular zone versus vehicle control: rats, 21 days in drinking water, single BrdU injection at day 20
Procedure: Groups of age- and weight-matched (five rats per group) adult male Wistar rats were fed ad libitum for 21 day s with either Haloperidol, 0.4 mg/kg/day, Risperidone (Janssen Pharmaceutica Res Foundation, Piscataway, N.J.) 0.5 mg/kg/day, or Olanzapine (Ely Lilly and Co., Indianapolis, Ind.) 2 mg/kg/day. Control groups received vehicle only. All drugs were administered in drinking water. Water bottles were tightly sealed with leak-proof lids. Fluid intake was measured for each animal for every 3 days and fresh drug was replaced accordingly to maintain the daily dosage.
On the 20th day of treatment, bromodeoxyuridine (BrdU, Sigma Chemical, St. Louis, Mo.), dissolved in distilled water, was injected intraperitonally in a volume of 0.3 ml or less per rat to deliver a dosage of 50 mg/kg, for the labeling of newly divided cells. One day after the BrdU injection, rats were anesthetized under ketamine (100 mg/kg) and xylazine (0.6 mg/kg) anesthesia with saline cardiac perfusion. Brains were removed quickly, placed in a brain matrix, cut into 5-mm blocks, cryoprotected in O.C.T. (Tissue-Tek) compound and frozen in isopentane in liquid nitrogen. Samples were stored at −80° C. until immunostaining.
Coronal brain sections, 10 μm-thick, were cut in a cryotome. Every fifth section was processed for immunohistochemistry with anti-BrdU antibody (Sigma Chemical). Sections were fixed in 4% paraformaldehyde and denatured in 2 N HCl for 30 min. Following incubation with primary antibody, sections were developed with avidin-biotin reagents using a biotinylated donkey anti-mouse-IgG antibody (Vector Labs., Burlingame, Calif.) and diaminobenzidine (DAB). Separate investigators performed sectioning, immunostaining, and counting of BrdU-positive cells in a double-blinded manner. To ensure consistency, one investigator who was unaware of treatment and staining protocols was responsible for counting BrdU-positive cells for the entire study.
SVZ was identified as the cell layer ventral and lateral to the ependymal layer. […] Cells along the lateral aspect of the subependymal region including the dorsolateral angle of the ventricle on both left and right hemispheres, and ventral to the corpus callosum were counted. The few BrdU-positive cells present outside this area were not counted. Five sections from each animal were counted and the average total BrdU positive cells calculated. To validate the BrdU staining of newly divided cells, an antibody against proliferating cell nuclear antigen (PCNA), from Sigma Chemical, was also used.
In these experiments, the effects on neurogenesis of treatment of animals with the atypical neuroleptics, Risperidone and Olanzapine, was assessed. […] In the experiments shown in FIG. 1, rats were treated with a vehicle, a typical neuroleptic, or an atypical neuroleptic for 21 day s. A single injection of BrdU was given to each rat intraperitoneally at day 20. Sections from brains of each animal were prepared and frozen for subsequent analysis. For immunostaining, frozen sections from rat brain were incubated with a monoclonal mouse-anti BrdU antibody, and a biotinylated anti-mouse secondary antibody and developed with avidin-biotin reagent and DAB. Shown in FIG. 1 is the staining for: (A) a vehicle-treated control rat; (B) a Haloperidol-treated rat; (C) a Risperidone-treated rat; and (D) an Olanzapine-treated rat. The arrows show some of the BrdU+ cells. […]
For quantification, the number of BrdU positive cells was counted for each group. […]

cognition = test: Cognitive performance of rats under long-term treatment; assay type: in vivo, rat; details: up to 90 days of treatment
Procedure: Atypical Neuroleptics Improve Cognition In this experiment, the effects of atypical neuroleptics and typical neuroleptics on cognition was evaluated. Rats were treated with either vehicle (water), Haloperidol, or Risperidone.

[3] = system: hippocampal dentate gyrus; test: Double immunofluorescent staining BrdU/NeuN in the hippocampal dentate gyrus; assay type: in vivo, rat; details: 21 days, single BrdU injection at day 20
Procedure: Tissue sections from intestinal mucosa, where many new cells are generated, were used as positive controls. […] Omission of the primary, anti-BrdU antibody provided additional negative controls.
(§1) In these experiments, the effect of the atypical neuroleptics in the hippocampus was evaluated. In the experiments shown in FIG. 5, rats were treated with vehicle, a typical neuroleptic (Haloperidol) (data not shown), or an atypical neuroleptic (Risperidone or Olanzapine) for 21 day s. A single injection of BrdU was given to each rat intraperitoneally at day 20. Frozen sections from rat brain were incubated with a monoclonal mouse-anti BrdU antibody and a biotinylated anti-mouse secondary antibody and developed with avidin-biotin reagent and DAB.
The animal was treated with Olanzapine for 21 day s and a single injection of BrdU given intraperitoneally at day 20. Frozen sections were incubated with sheep-anti BrdU and mouse-anti NeuN antibodies. Secondary antibodies were a combination of Cy-3-conjugated anti-sheep antibody and Cy-2-conjugated anti-mouse antibody.

[4] = system: hippocampal dentate gyrus; test: BrdU+ cell count in the hippocampal dentate gyrus; assay type: in vivo, rat; details: 21 days, single BrdU injection at day 20
Procedure: as §1

superoxide dismutase = details: in vitro; cited from earlier work
nerve growth factor = details: in vitro; cited from earlier work
[5] = system: subventricular zone (SVZ); test: Double immunofluorescent staining BrdU/NeuN and BrdU/GFAP in the subventricular zone, weekly BrdU injection; assay type: in vivo, rat; details: 21 days, BrdU injected at day 7, 14 and 20
Source text: A second study was undertaken in which 15 rats were divided in three treatment groups: Olanzapine-, haldol-, and vehicle-treated. In this study, BrdU injection was given once a week (starting on day 7) and one animal from each group was killed on days 14, 21, 28, 35, and 42. Tissue sections from this study were used in double immunofluorescent staining for either BrdU/NeuN or BrdU/glial fibrillary acidic protein (GFAP).
To evaluate whether the BrdU-positive cells expressed any neuronal or astrocytic markers, sections were subjected to double immunofluorescent staining, using sheep anti-BrdU serum (Biodesign) in combination with either a mouse anti-NeuN (as a neuronal marker, Chemicon, Tememcula, Calif.) or a rabbit anti-glial fibrillary acidic protein (an astrocytic marker, Dako, Carpinteria, Calif.), and the appropriate secondary antibodies that had been conjugated with cyanin dyes were used for visualization (Jackson Lab, Bar Harbor, Me.). […]
To evaluate whether the BrdU-positive cells express any cell type-specific marker, double immunofluoresence microscopy using either anti-NeuN or anti-GFAP antibody in combination with anti-BrdU antibody was performed. […] No BrdU+/GFAP+ cells were detected. Although the double-stained (BrdU+/NeuN+) cells were not quantified, there were clearly more BrdU+/NeuN+ in rats treated with the atypical neuroleptics than that in the untreated control rats.

[6] = system: nerve growth factor (NGF)-receptor; details: in vitro; cited from earlier work

| Compound | fibroblast growth factor-2 (FGF-2) expression [1] | mean cell counts in the subventricular zone versus Olanzapine and Risperidone (Tukey multiple comparison) ([2]; 21 days, n=5) | BrdU positive (BrdU+) cells / mean cell counts in the subventricular zone versus vehicle control [2] | BrdU positive (BrdU+) cells / mean cell counts in the subventricular zone versus vehicle control ([2]; listed as Haldolperidol) | cognitive performance as compared to the vehicle (cognition) | NeuN (or GFAP) expression of BrdU+ cells in the hippocampus [3] | average numbers of BrdU-positive cells in the hippocampal dentate gyrus versus control group [4] | statistical significance of the increase in neurogenesis in the hippocampus [4] | expression of superoxide dismutase (superoxide dismutase) | expression of nerve growth factor (nerve growth factor) | BrdU+/GFAP+ cells in the SVZ [5] | BrdU+/NeuN+ cells in the SVZ [5] | expression of nerve growth factor (NGF)-receptor [6] |
| --- | --- | --- | --- | --- | --- | --- | --- | --- | --- | --- | --- | --- | --- |
| CN1CCN(C2=Nc3cc(Cl)ccc3Nc3ccccc32)CC1 [Clozapine, 8-chloro-11-(4-methyl-1-piperazinyl)-5H-dibenzo [b,e] [1,4] diazepine] | increases; also recorded: modulate |  |  |  |  |  |  |  |  |  |  |  |  |
| O=C(CCCN1CCC(O)(c2ccc(Cl)cc2)CC1)c1ccc(F)cc1 [Haloperidol] |  | significantly lower | No differences | not significantly different | significantly impaired | did not express NeuN (or GFAP) |  |  |  |  |  |  |  |
| Cc1cc2c(s1)Nc1ccccc1N=C2N1CCN(C)CC1 [Olanzapine, 2-methyl-4-(4-methyl-1-piperazinyl)-10H-thieno[2,3-b] [1,5]benzodiazepine] |  |  | significant increase; also recorded: significantly higher |  |  | 3 BrdU+/NeuN− cells in the subgranular layer and a BrdU+/NeuN+ cell in the apical region of the granular cell layer | higher than the control group | not statistically significant | induces the expression | stimulate expression | No BrU+/GFAP+ cells were detected; also recorded: essentially none | numerous; also recorded: increase | induces the expression |
| Cc1nc2n(c(=O)c1CCN1CCC(c3noc4cc(F)ccc34)CC1)CCCC2 [Risperidone, 3-[2-[4-(6-fluoro-1,2-benzisoxazol-3-yl)-1-piperidinyl]ethyl]-6,7,8,9-tetrahydro-2-methyl-4H-pyrido[1,2-a]pyrimidin-4-one] |  |  | significant increase; also recorded: significantly higher |  | improved performance |  | higher than the control group | not statistically significant |  |  |  |  |  |
